From patent US5047397A, “Linear analogs of atrial natriuretic peptides” (California Biotechnology Inc., priority 1988, dated 1991)
One block for each compound: values may come before it. Where a SMILES comes first, the peptide text is derived from it. Bridges are numbered along the chain shown (N, C = ends). Where no end group is shown, it is not given here.

Columns and labels:
[1] = biological target: T1, specific ANP receptor sites on BASM or BAE cells (Bos taurus, UniProt P10730); test: Competitive displacement receptor binding of (125I)-rANP(126-150) on cultured cells; parameters: species or system bovine
T1 construct: specific receptor sites on BASM or BAE cells; endogenous in cells; host or cells: cultured BASM and BAE cells
T1 sequence (P10730 42-537): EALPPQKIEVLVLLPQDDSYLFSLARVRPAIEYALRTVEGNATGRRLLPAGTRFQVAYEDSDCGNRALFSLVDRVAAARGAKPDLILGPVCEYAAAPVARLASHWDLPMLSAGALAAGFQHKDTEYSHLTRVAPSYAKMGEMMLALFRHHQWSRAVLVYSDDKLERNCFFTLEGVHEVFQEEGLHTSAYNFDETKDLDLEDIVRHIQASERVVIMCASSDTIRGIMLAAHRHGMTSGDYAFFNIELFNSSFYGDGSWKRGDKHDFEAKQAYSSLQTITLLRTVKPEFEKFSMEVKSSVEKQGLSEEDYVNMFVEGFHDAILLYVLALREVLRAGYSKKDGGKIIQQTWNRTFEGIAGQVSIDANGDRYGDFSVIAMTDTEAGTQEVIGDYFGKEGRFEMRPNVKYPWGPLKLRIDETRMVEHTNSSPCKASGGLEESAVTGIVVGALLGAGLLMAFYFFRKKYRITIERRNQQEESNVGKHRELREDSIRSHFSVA
From the text: Analogous "competitive displacement" receptor binding assays are considered commonplace in the art for examining specific ligand-receptor interactions.
Assuming these ANP analogs act at one or more ANP receptor sites, then increased receptor affinity should reflect increased biological potency.

[2] = tested on: anesthetized rats; test: Diuresis in anesthetized rats; format: in vivo, rat; conditions: dose not stated
Procedure: In one set of examples, cannulae were placed in the left and right ureters and femoral vein of anesthetized rats and urine was collected from the ureters. Analog peptides were administered via the femoral vein. Prior to infusing the analog peptides, saline was infused for 30 minutes, urine was collected for 6 five-minute baseline periods and urine volume was determined gravimetrically. Following these baseline collection periods, various analog peptides were infused for 30 or 60 minutes and urine volume was measured in five-minute periods during infusion and for 60 minutes following infusion (at which time rats were returned to saline). Data was examined by averaging urine flow rates for six five-minute baseline control periods immediately preceding infusion, and comparing values during and after administration of peptides with the "baseline" control values. Responses to peptides are thus evaluated and plotted as the percent of baseline control responses. Specific examples are shown in FIGS. 3A-H. The error bars at the beginning of the graphs represent baseline values +standard deviations. Responses to peptides that are substantially above baseline ±SD can thus be interpreted as being statistically significant increases.

[3] = tested on: isolated perfused rat kidney; test: Natriuresis and diuresis in the isolated perfused rat kidney; conditions: for FENa (fractional sodium excretion) / FF (filtration fraction) / GFR (glomerular filtration rate) / RVR (renal vascular resistance) / UNa V (urinary sodium excretion rate) / V (urine flow rate): N=4
From the text: The results are in Table 2C.

[4] = tested on: cortical-associated receptor sites of the kidney; test: Competition for specific (125I)-rANP(123-150) binding in the kidney; parameters: species or system rat; conditions: competitor 10^-7 M, tracer 4 × 10^-12 M, n=3; for RATIO OF BOUND/FREE (125I)-rANP(123-150), Whole Kidney: tracer alone 122 ± 46; for RATIO OF BOUND/FREE (125I)-rANP(123-150), Outer Cortex: tracer alone 176 ± 23
[5] = [C] period of section D: AP57 10^-7 M present, before rANP(123-150)
[6] = rANP(123-150) 10^-8 M in presence of AP57 10^-7 M
[7] = rANP(123-150) 10^-8 M, mean ± SE
[8] = rANP(123-150) 10^-9 M in presence of AP57 10^-7 M
[9] = rANP(123-150) 10^-9 M, mean ± SE
[10] = rANP(123-150) 10^-10 M in presence of AP57 10^-7 M
[11] = rANP(123-150) 10^-10 M, mean ± SE
[12] = rANP(123-150) 10^-11 M in presence of AP57 10^-7 M
[13] = rANP(123-150) 10^-11 M, mean ± SE

receptor binding / activity as judged by Ki, in words [1]: does not bind to the receptor | Ki(app) ([1]; concentration of unlabeled peptide displacing 50% of maximal binding of 0.5 nM (125I)-rANP(126-150), BASM or BAE cells): > 200 nM
Compound: CC[C@H](C)[C@@H]1NC(=O)[C@H](CCCNC(=N)N)NC(=O)[C@H](CC(=O)O)NC(=O)[C@H]([C@@H](C)CC)NC(=O)[C@@H](NC(=O)[C@H](CO)NC(=O)[C@H](CO)NC(=O)[C@@H](N)CCCNC(=N)N)CSSC[C@@H](C(=O)N[C@@H](CC(N)=O)C(=O)N[C@@H](CO)C(=O)N[C@@H](Cc2ccccc2)C(=O)N[C@@H](CCCNC(=N)N)C(=O)N[C@@H](Cc2ccc(O)cc2)C(=O)O)NC(=O)CNC(=O)[C@H](CC(C)C)NC(=O)CNC(=O)[C@H](CO)NC(=O)[C@H](CCC(N)=O)NC(=O)[C@H](C)NC(=O)CNC1=O [AP54, R--S--S--C--I--D--R--I--G--A--Q--S--G--L--G--C--N--S--F--R--Y] (H-RSSCIDRIGAQSGLGCNSFRY-OH; disulfide 4-16)
in vivo diuretic/natriuretic activity in rats, in words [2]: appears inactive in vivo

Compound: CC[C@H](C)[C@@H]1NC(=O)[C@H](CCCNC(=N)N)NC(=O)[C@H](CC(=O)O)NC(=O)[C@H]([C@@H](C)CC)NC(=O)[C@H](CCCNC(=N)N)NC(=O)CNC(=O)CNC(=O)[C@H](Cc2ccccc2)NC(=O)[C@@H](NC(=O)[C@H](CO)NC(=O)[C@H](CO)NC(=O)[C@@H](N)CCCNC(=N)N)CSSC[C@@H](C(N)=O)NC(=O)[C@H](C)NC(=O)CNC1=O [AP57, R-S-S-C-F-G-G-R-I-D-R-I-G-A-C-NH2] (H-RSSCFGGRIDRIGAC-NH2; disulfide 4-15)
natriuretic/diuretic activity in the isolated perfused rat kidney, in words ([3]; 10^-7 M): not active | FENa (fractional sodium excretion) ([3]; AP57 10^-7 M alone, mean ± SE): 0.24 ± 0.08% | FF (filtration fraction) ([3]; AP57 10^-7 M alone, mean ± SE): 1.37 ± 0.22% | GFR (glomerular filtration rate) ([3]; AP57 10^-7 M alone, mean ± SE): 0.55 ± 0.07 mL/min | RVR (renal vascular resistance) ([3]; AP57 10^-7 M alone, mean ± SE): 2.27 ± 0.17 mmHg/ml/min | UNa V (urinary sodium excretion rate) ([3]; AP57 10^-7 M alone, mean ± SE): 0.17 ± 0.04 uEq/min | V (urine flow rate) ([3]; AP57 10^-7 M alone, mean ± SE): 13.8 ± 2.0 µL/min | FENa (fractional sodium excretion) [3, 5]: 0.18 ± 0.04% | FF (filtration fraction) [3, 5]: 1.57 ± 0.27% | GFR (glomerular filtration rate) [3, 5]: 0.65 ± 0.06 mL/min | RVR (renal vascular resistance) [3, 5]: 2.21 ± 0.21 mmHg/ml/min | UNa V (urinary sodium excretion rate) [3, 5]: 0.17 ± 0.05 uEq/min | V (urine flow rate) [3, 5]: 16.3 ± 2.0 µL/min | modulation of renal responses to rANP(123-150), in words ([3]; pretreatment of the isolated kidney with 10^-7 M AP57): increased the potency of rANP(123-150) | Ki ([1]; Table 2A, unit not given, in nM): 8.2 | RATIO OF BOUND/FREE (125I)-rANP(123-150), Whole Kidney [4]: 1.27 ± 0.32 | RATIO OF BOUND/FREE (125I)-rANP(123-150), Outer Cortex [4]: 1.68 ± 0.44 | in vivo diuretic/natriuretic activity in rats, in words [2]: natriuretic and diuretic activities

Compound: rANP(123-150): sequence of ANP(126-150) which includes 3 additional upstream amino acids of the naturally occurring peptide (SLRRSSCFGGRIDRIGAQSGLGCNSFRY; not fully specified; ends and bridges not checked; UniProt P01161 123-150, looked up, fragment)
FENa (fractional sodium excretion) [3, 6]: 4.77 ± 1.22% | FF (filtration fraction) [3, 6]: 2.30 ± 0.47% | GFR (glomerular filtration rate) [3, 6]: 0.84 ± 0.13 mL/min | RVR (renal vascular resistance) [3, 6]: 2.63 ± 0.33 mmHg/ml/min | UNa V (urinary sodium excretion rate) [3, 6]: 6.47 ± 2.29 uEq/min | V (urine flow rate) [3, 6]: 132 ± 33 µL/min | FENa (fractional sodium excretion) [3, 7]: 4.12 ± 0.94% | FF (filtration fraction) [3, 7]: 2.23 ± 0.44% | GFR (glomerular filtration rate) [3, 7]: 0.80 ± 0.08 mL/min | RVR (renal vascular resistance) [3, 7]: 2.66 ± 0.32 mmHg/ml/min | UNa V (urinary sodium excretion rate) [3, 7]: 4.78 ± 1.15 uEq/min | V (urine flow rate) [3, 7]: 96.6 ± 24.0 µL/min | FENa (fractional sodium excretion) [3, 8]: 4.08 ± 0.72% | FF (filtration fraction) [3, 8]: 2.81 ± 0.40% | GFR (glomerular filtration rate) [3, 8]: 0.99 ± 0.07 mL/min | RVR (renal vascular resistance) [3, 8]: 2.79 ± 0.34 mmHg/ml/min | UNa V (urinary sodium excretion rate) [3, 8]: 6.03 ± 1.37 uEq/min | V (urine flow rate) [3, 8]: 139 ± 14 µL/min | FENa (fractional sodium excretion) [3, 9]: 2.78 ± 0.89% | FF (filtration fraction) [3, 9]: 2.30 ± 0.41% | GFR (glomerular filtration rate) [3, 9]: 0.82 ± 0.07 mL/min | RVR (renal vascular resistance) [3, 9]: 2.64 ± 0.35 mmHg/ml/min | UNa V (urinary sodium excretion rate) [3, 9]: 3.22 ± 0.92 uEq/min | V (urine flow rate) [3, 9]: 74.0 ± 14.8 µL/min | FENa (fractional sodium excretion) [3, 10]: 1.33 ± 0.20% | FF (filtration fraction) [3, 10]: 2.65 ± 0.20% | GFR (glomerular filtration rate) [3, 10]: 0.93 ± 0.04 mL/min | RVR (renal vascular resistance) [3, 10]: 2.80 ± 0.31 mmHg/ml/min | UNa V (urinary sodium excretion rate) [3, 10]: 1.76 ± 0.25 uEq/min | V (urine flow rate) [3, 10]: 70.6 ± 4.2 µL/min | FENa (fractional sodium excretion) [3, 11]: 1.21 ± 0.44% | FF (filtration fraction) [3, 11]: 1.76 ± 0.29% | GFR (glomerular filtration rate) [3, 11]: 0.66 ± 0.07 mL/min | RVR (renal vascular resistance) [3, 11]: 2.51 ± 0.26 mmHg/ml/min | UNa V (urinary sodium excretion rate) [3, 11]: 1.13 ± 0.43 uEq/min | V (urine flow rate) [3, 11]: 35.5 ± 5.7 µL/min | FENa (fractional sodium excretion) [3, 12]: 0.41 ± 0.11% | FF (filtration fraction) [3, 12]: 2.04 ± 0.15% | GFR (glomerular filtration rate) [3, 12]: 0.80 ± 0.08 mL/min | RVR (renal vascular resistance) [3, 12]: 2.50 ± 0.15 mmHg/ml/min | UNa V (urinary sodium excretion rate) [3, 12]: 0.45 ± 0.10 uEq/min | V (urine flow rate) [3, 12]: 31.0 ± 3.7 µL/min | FENa (fractional sodium excretion) [3, 13]: 0.72 ± 0.19% | FF (filtration fraction) [3, 13]: 1.33 ± 0.20% | GFR (glomerular filtration rate) [3, 13]: 0.53 ± 0.04 mL/min | RVR (renal vascular resistance) [3, 13]: 2.36 ± 0.20 mmHg/ml/min | UNa V (urinary sodium excretion rate) [3, 13]: 0.53 ± 0.14 uEq/min | V (urine flow rate) [3, 13]: 21.8 ± 1.7 µL/min | RATIO OF BOUND/FREE (125I)-rANP(123-150), Whole Kidney [4]: 0.63 ± 0.27 | RATIO OF BOUND/FREE (125I)-rANP(123-150), Outer Cortex [4]: 0.77 ± 0.30
